Experiments:
[1] = tested on: HBV viral load in AD38 cells; test: Viral load production in AD38 cells, quantitative PCR of the core sequence in supernatant; assay type: cell-based; conditions: Hepatitis B virus, 144 h, 10 μM compound, 6 days at 37° C., supernatant qPCR, relative to DMSO control; read-out: AD38 Viral Load (%) (VL with cmpd/VL in DMSO control) at 10 μM
[2] = tested on: AD38 cells; test: Viability of AD38 cells (Promega CellTiter-Glo); assay type: cell-based; conditions: 10 μM compound, 6 days, CellTiter-Glo luminescence normalized to DMSO control (100%)
Summary of the method: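 AD38 cells were seeded at 50,000/well on collagen-coated plates and treated with compound added as a 10× solution in 10% DMSO for 6 days at 37° C. Viability was measured by CellTiter-Glo luminescence in tetracycline-free medium with 2% FBS and 1% DMSO, and expressed as percent of DMSO control.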

Structure (SMILES)	activity at 10 µM [1] [%]	AD38 Viability Normalized Result (cmpd/DMSO %) at 10 μM [2] [%]
CN(C)CCC#Cc1ccc(-c2ncc(CNC(=O)c3ccc4c(c3)NC(=O)c3ccccc3S4(=O)=O)s2)cc1 [compound 11003, N-((2-(4-(4-(dimethylamino)but-1-yn-1-yl)phenyl)thiazol-5-yl)methyl)-11-oxo-10, 11-dihydrodibenzo [b, f] [1, 4] thiazepine-8-carboxamide 5,5-dioxide]	0.3	97
Cl.NCCCCc1ccc(-c2ncc(CNC(=O)c3ccc4c(c3)NC(=O)c3ccccc3S4(=O)=O)s2)cc1 [compound 11004, N-((2-(4-(4-aminobutyl)phenyl)thiazol-5-yl)methyl)-11-oxo-10, 11-dihydrodibenzo [b, f] [1, 4] thiazepine-8-carboxamide 5,5-dioxide hydrochloride salt]	5.5	94
CN(C)CCCCc1ccc(-c2ncc(CNC(=O)c3ccc4c(c3)NC(=O)c3ccccc3S4(=O)=O)s2)cc1 [compound 11005, N-((2-(4-(4-(dimethylamino)butyl)phenyl)thiazol-5-yl)methyl)-11-oxo-10, 11-dihydrodibenzo [b, f] [1, 4] thiazepine-8-carboxamide 5,5-dioxide]	1.9	102
CN(C)CCCSc1ccc(-c2ncc(CNC(=O)c3ccc4c(c3)NC(=O)c3ccccc3S4(=O)=O)s2)cc1 [compound 11006, N-((2-(4-((3-(dimethylamino)propyl)thio)phenyl)thiazol-5-yl)methyl)-11-oxo-10, 11-dihydrodibenzo [b, f] [1, 4] thiazepine-8-carboxamide 5,5-dioxide]	1.3	97
Cl.NCCCSc1ccc(-c2ncc(CNC(=O)c3ccc4c(c3)NC(=O)c3ccccc3S4(=O)=O)s2)cc1 [compound 11007, N-((2-(4-((3-aminopropyl)thio)phenyl)thiazol-5-yl)methyl)-11-oxo-10, 11-dihydrodibenzo [b, f] [1, 4] thiazepine-8-carboxamide 5,5-dioxide hydrochloride]	2	101
CN(C)CCCOc1ccc(-c2ncc(CNC(=O)c3ccc4c(c3)NC(=O)c3ccccc3S4(=O)=O)s2)nc1 [compound 11011, N-((2-(5-(3-(dimethylamino)propoxy)pyridin-2-yl)thiazol-5-yl)methyl)-11-oxo-10, 11-dihydrodibenzo [b, f] [1, 4] thiazepine-8-carboxamide 5,5-dioxide]	5.3	98
Cl.O=C(NCc1cnc(-c2ccc(C(=O)N3CCNCC3)cc2)s1)c1ccc2c(c1)NC(=O)c1ccccc1S2(=O)=O [compound 11016, 11-oxo-N-((2-(4-(piperazine-1-carbonyl)phenyl)thiazol-5-yl)methyl)-10, 11-dihydrodibenzo [b, f] [1, 4] thiazepine-8-carboxamide 5,5-dioxide hydrochloride]	38.8	106
Cl.NCCNC(=O)c1ccc(-c2ncc(CNC(=O)c3ccc4c(c3)NC(=O)c3ccccc3S4(=O)=O)s2)cc1 [compound 11017, N-((2-(4-((2-aminoethyl)carbamoyl)phenyl)thiazol-5-yl)methyl)-11-oxo-10, 11-dihydrodibenzo [b, f] [1, 4] thiazepine-8-carboxamide 5,5-dioxide hydrochloride]	21	86
Cl.O=C(NCc1cnc(-c2ccc(N3CCNCC3)cc2)s1)c1ccc2c(c1)NC(=O)c1ccccc1S2(=O)=O [compound 11018, 11-oxo-N-((2-(4-(piperazin-1-yl)phenyl)thiazol-5-yl)methyl)-10, 11-dihydrodibenzo [b, f] [1, 4] thiazepine-8-carboxamide 5,5-dioxide hydrochloride]	3.9	98
Cl.O=C(NCc1cnc(-c2ccc(N3CCNCC3)nc2)s1)c1ccc2c(c1)NC(=O)c1ccccc1S2(=O)=O [compound 11019, 11-oxo-N-((2-(6-(piperazin-1-yl)pyridin-3-yl)thiazol-5-yl)methyl)-10, 11-dihydrodibenzo [b, f] [1, 4] thiazepine-8-carboxamide 5,5-dioxide hydrochloride]	14.3	93
O=C(NCc1cnc(-c2ccc(OC3CCNCC3)cc2)s1)c1ccc2c(c1)NC(=O)c1ccccc1S2(=O)=O [compound 11026, 11-oxo-N-((2-(4-(piperidin-4-yloxy)phenyl)thiazol-5-yl)methyl)-10, 11-dihydrodibenzo [b, f] [1, 4] thiazepine-8-carboxamide 5,5-dioxide]	5.5	100
O=C(NCc1cnc(-c2ccc(O[C@H]3CCNC3)cc2)s1)c1ccc2c(c1)NC(=O)c1ccccc1S2(=O)=O.O=C(O)C(F)(F)F [compound 11028, (S)-11-oxo-N-((2-(4-(pyrrolidin-3-yloxy)phenyl)thiazol-5-yl)methyl)-10, 11-dihydrodibenzo [b, f] [1, 4] thiazepine-8-carboxamide 5,5-dioxide TFA salt]	5.2	92
Cl.O=C(NCc1cnc(-c2ccc(OC[C@@H]3CCCN3)cc2)s1)c1ccc2c(c1)NC(=O)c1ccccc1S2(=O)=O [compound 11029, (S)-11-oxo-N-((2-(4-(pyrrolidin-2-ylmethoxy)phenyl)thiazol-5-yl)methyl)-10, 11-dihydrodibenzo [b, f] [1, 4] thiazepine-8-carboxamide 5,5-dioxide hydrochloride]	5.3	105
NCCCS(=O)(=O)c1ccc(-c2ncc(CNC(=O)c3ccc4c(c3)NC(=O)c3ccccc3S4(=O)=O)s2)cc1.O=C(O)C(F)(F)F [compound 11032, N-((2-(4-((3-aminopropyl)sulfonyl)phenyl)thiazol-5-yl)methyl)-11-oxo-10, 11-dihydrodibenzo [b, f] [1, 4] thiazepine-8-carboxamide 5,5-dioxide TFA salt]	51.7	103
CN(C)CCCS(=O)(=O)c1ccc(-c2ncc(CNC(=O)c3ccc4c(c3)NC(=O)c3ccccc3S4(=O)=O)s2)cc1.O=C(O)C(F)(F)F [compound 11033, N-((2-(4-((3-(dimethylamino)propyl)sulfonyl)phenyl)thiazol-5-yl)methyl)-11-oxo-10, 11-dihydrodibenzo [b, f] [1, 4] thiazepine-8-carboxamide 5,5-dioxide TFA salt]	17.1	95
O=C(NCc1cnc(-n2cc(F)cn2)s1)c1ccc2c(c1)NC(=O)c1ccccc1S2(=O)=O [compound 11038]	2	99
O=C(NCc1cnc(-n2cc(C(F)(F)F)cn2)s1)c1ccc2c(c1)NC(=O)c1ccccc1S2(=O)=O [compound 11039]	1.9	92
O=C(NCc1cnc(-c2ccc(F)cn2)s1)c1ccc2c(c1)NC(=O)c1ccccc1S2(=O)=O [compound 11040]	1.9	104

— patent US11814376B2, “Hepatitis b core protein modulators” (Assembly Biosciences, Inc., priority 2015, dated 2023)
